# Source: ChEMBL document CHEMBL5214926, “Recent contribution of medicinally active 2-aminothiophenes: A privileged scaffold for drug discovery” (Eur J Med Chem, 2022)
# Tests used:
# HepG2 [1] = assay: Cytotoxicity against human HepG2 cells assessed as cell growth inhibition incubated for 2 days by MTT assay; type: functional, cell-based; settings: HepG2, 48 h
# PC-3 = assay: Cytotoxicity against human PC-3 cells assessed as cell growth inhibition incubated for 2 days by MTT assay; type: functional, cell-based; settings: PC-3, 48 h
# MCF7 [2] = assay: Cytotoxicity against human MCF7 cells assessed as cell growth inhibition incubated for 2 days by MTT assay; type: functional, cell-based; settings: MCF7, 48 h
# Staphylococcus aureus [3] = assay: Antibacterial activity against Staphylococcus aureus NCIM 2010 assessed as bacterial growth inhibition incubated for 8 hrs by absorbance based assay; type: functional
# Bacillus subtilis [4] = assay: Antibacterial activity against Bacillus subtilis NCIM 2079 assessed as reduction in bacterial growth incubated for 8 hrs by absorbance based assay; type: functional, organism-based; settings: NCIM 2079, 8 h
# Escherichia coli = assay: Antibacterial activity against Escherichia coli NCIM 2688 assessed as bacterial growth inhibition incubated for 8 hrs by absorbance based assay; type: functional
# Staphylococcus aureus [5] = assay: Antibacterial activity against Staphylococcus aureus NCIM 2010 assessed as reduction in bacterial growth incubated for 8 hrs by absorbance based assay; type: functional, organism-based; settings: NCIM 2010, 8 h
# Bacillus subtilis [6] = assay: Antibacterial activity against Bacillus subtilis NCIM 2079 assessed as bacterial growth inhibition incubated for 8 hrs by absorbance based assay; type: functional
# Pseudomonas aeruginosa = assay: Antibacterial activity against Pseudomonas aeruginosa NCIM 2036 assessed as bacterial growth inhibition incubated for 8 hrs by absorbance based assay; type: functional
# [7] = tested on: Mycobacterium tuberculosis; assay: Antimycobacterial activity against Mycobacterium tuberculosis H37Ra incubated for 8 to 12 days by XTT reduction menadione assay; type: functional; settings: time 8-12 day
# [8] = Inhibition of CaCC (unknown origin) current potentiation; design: species or system Homo sapiens
# Leishmania amazonensis = assay: Anti-promastigote activity against Leishmania amazonensis (IFLA/BR/67/PH8) assessed as promastigote growth inhibition incubated for 72 hrs by microscopic analysis; type: functional, organism-based
# NCI-H460 = assay: Antiproliferative activity against human NCI-H460 cells assessed as cell growth inhibition by MTT assay
# [9] = Antiproliferative activity against human U-87 MG cells assessed as cell growth inhibition by MTT assay; type: functional, cell-based, U-87MG ATCC
# A549 = assay: cells; settings: Homo sapiens
# Description: Antiproliferative activity against human A549 cells assessed as cell growth inhibition by MTT assay
# SMMC-7721 = assay: Antiproliferative activity against human SMMC-7721 cells assessed as cell growth inhibition by MTT assay
# MKN-45 = assay: Antiproliferative activity against human MKN-45 cells assessed as cell growth inhibition by MTT assay
# HT-29 = assay: cells; settings: Homo sapiens
# Description: Antiproliferative activity against human HT-29 cells assessed as cell growth inhibition by MTT assay
# NCI-H1299 = assay: Cytotoxicity against human NCI-H1299 cells assessed as cell growth inhibition incubated for 48 hrs by SRB assay; type: functional, cell-based; settings: NCI-H1299, 48 h
# HepG2 [10] = assay: Cytotoxicity against human HepG2 cells assessed as cell growth inhibition incubated for 48 hrs by MTT assay; type: functional, cell-based
# MCF7 [11] = assay: Cytotoxicity against human MCF7 cells assessed as cell growth inhibition incubated for 48 hrs by MTT assay; type: functional, cell-based; settings: MCF7, 48 h
# [12] = Leishmania amazonensis, IFLA/BR/67/PH8, 72 h
smiles,measurement,setting,value
N#Cc1c(NC(=O)/C=C/c2ccc(O)cc2)sc2c1CCCC2,IC50,HepG2 [1],7900 nM
same,IC50,PC-3,5200 nM
same,IC50,MCF7 [2],7500 nM
CC1=C(C(=O)O)N2C(=O)[C@@H](NC(=O)[C@H](N)c3ccccc3)[C@H]2SC1 [CEPHALEXIN ANHYDROUS],MIC,Staphylococcus aureus [3],2.39 µg/mL
same,EC50,Bacillus subtilis [4],250 nM
same,MIC,Escherichia coli,4.94 µg/mL
same,EC50,Staphylococcus aureus [5],770 nM
same,MIC,Bacillus subtilis [6],1.87 µg/mL
same,MIC,Pseudomonas aeruginosa,> 10 µg/mL
COC(=O)c1ccsc1NC(=O)N[C@@H](C(=O)N[C@@H]1C(=O)N2C(C(=O)O)=C(C)CS[C@H]12)c1ccccc1,MIC,Staphylococcus aureus [3],0.75 µg/mL
same,EC50,Bacillus subtilis [4],210 nM
same,MIC,Escherichia coli,> 10 µg/mL
same,EC50,Staphylococcus aureus [5],260 nM
same,MIC,Bacillus subtilis [6],3.14 µg/mL
same,MIC,Pseudomonas aeruginosa,> 10 µg/mL
same,MIC,[7],> 50 µg/mL
CCOC(=O)c1c(NC(=O)/C=C/c2ccc(O)cc2)sc2c1CCCC2,IC50,HepG2 [1],8300 nM
same,IC50,PC-3,6290 nM
same,IC50,MCF7 [2],8270 nM
CC(C)(C)C1CCc2c(sc(NC3=NCC(CBr)S3)c2C(=O)O)C1 (configuration not stated),IC50,[8],24800 nM
CCOC(=O)c1c(Nc2c3ccc(Cl)cc3nc3ccc(OC)cc23)sc2c1CCCC2,EC50,Leishmania amazonensis,26600 nM
same,EC50,Leishmania amazonensis; [12],51400 nM
CCOC(=O)c1c(N)sc(C(=O)Nc2ccc(Cl)cc2)c1-c1ccccc1,IC50,NCI-H460,380 nM
same,IC50,[9],390 nM
same,IC50,A549,230 nM
same,IC50,SMMC-7721,420 nM
same,IC50,MKN-45,260 nM
same,IC50,HT-29,190 nM
C=CCNC(=S)Nc1sc2c(c1C(=O)OC)CCC(C(C)(C)C)C2 (configuration not stated),IC50,[8],49700 nM
N#Cc1c(N)sc(C(=O)Nc2ccc(Cl)cc2)c1-c1ccccc1,IC50,NCI-H460,760 nM
same,IC50,[9],590 nM
same,IC50,A549,700 nM
same,IC50,SMMC-7721,690 nM
same,IC50,MKN-45,420 nM
same,IC50,HT-29,650 nM
CC1(C)S[C@@H]2[C@H](NC(=O)[C@H](N)c3ccccc3)C(=O)N2[C@H]1C(=O)O [AMPICILLIN],MIC,Staphylococcus aureus [3],0.28 µg/mL
same,EC50,Bacillus subtilis [4],150 nM
same,MIC,Escherichia coli,0.88 µg/mL
same,EC50,Staphylococcus aureus [5],150 nM
same,MIC,Bacillus subtilis [6],0.28 µg/mL
same,MIC,Pseudomonas aeruginosa,> 10 µg/mL
CO[C@H]1/C=C/O[C@@]2(C)Oc3c(C)c(O)c4c(O)c(c(/C=N/N5CCN(C)CC5)c(O)c4c3C2=O)NC(=O)/C(C)=C\C=C\[C@H](C)[C@H](O)[C@@H](C)[C@@H](O)[C@@H](C)[C@H](OC(C)=O)[C@@H]1C [RIFAMPIN],MIC,[7],0.042 µg/mL
N#Cc1c(/N=C/c2c3ccccc3nc3ccccc23)sc2c1CCC2,EC50,Leishmania amazonensis; [12],> 500000 nM
COc1ccc(/C=N/NCC(=O)Nc2sc3c(c2C#N)CCCC3)cc1,IC50,NCI-H1299,18500 nM
CCOC(=O)c1c(NC(=O)CC#N)sc(C(=O)Nc2ccc(Cl)cc2)c1-c1ccccc1,IC50,NCI-H460,430 nM
same,IC50,[9],430 nM
same,IC50,A549,600 nM
same,IC50,SMMC-7721,730 nM
same,IC50,MKN-45,390 nM
same,IC50,HT-29,620 nM
N#CCC(=O)Nc1sc(C(=O)Nc2ccc(Cl)cc2)c(-c2ccccc2)c1C#N,IC50,NCI-H460,1040 nM
same,IC50,[9],860 nM
same,IC50,A549,1400 nM
same,IC50,SMMC-7721,390 nM
same,IC50,MKN-45,590 nM
same,IC50,HT-29,860 nM
COc1cccc2c1C(=O)c1c(O)c3c(c(O)c1C2=O)C[C@@](O)(C(=O)CO)C[C@@H]3O[C@H]1C[C@H](N)[C@H](O)[C@H](C)O1 [DOXORUBICIN],IC50,"HepG2 [10]; Homo sapiens, HepG2, 48 h",4170 nM
CC(=O)c1ccc(Nc2c(C(C)=O)sc(N)c2C#N)cc1,IC50,MCF7 [11],91500 nM
same,IC50,"HepG2 [10]; Homo sapiens, HepG2, 48 h",88500 nM
Cc1cc(C)c2c(NCC(=O)Nc3sc4c(c3C#N)CCCC4)n[nH]c2n1,IC50,NCI-H1299,13700 nM
CC(=O)c1ccc(Nc2c(C(=O)/C=C/c3ccccc3)sc(/N=C/c3ccccc3)c2C#N)cc1,IC50,MCF7 [11],19100 nM
same,IC50,"HepG2 [10]; Homo sapiens, HepG2, 48 h",19100 nM
same,IC50,HepG2 [10]; hepg2,26200 nM
COC(=O)c1c(NC(=O)N[C@@H](C(=O)N[C@@H]2C(=O)N3[C@@H]2SC(C)(C)[C@@H]3C(=O)O)c2ccccc2)sc2c1CCCCCC2,MIC,Staphylococcus aureus [3],0.28 µg/mL
same,EC50,Bacillus subtilis [4],280 nM
same,MIC,Escherichia coli,> 10 µg/mL
same,EC50,Staphylococcus aureus [5],150 nM
same,MIC,Bacillus subtilis [6],2.3 µg/mL
same,MIC,Pseudomonas aeruginosa,> 10 µg/mL
same,MIC,[7],23.3 µg/mL
COc1cc2c(Oc3ccc(NC(=O)C4(C(=O)Nc5ccc(F)cc5)CC4)cc3F)ccnc2cc1OCCCN1CCOCC1 [FORETINIB],IC50,[9],900 nM
CCOC(=O)c1c(Nc2c3ccc(Cl)cc3nc3ccc(OC)cc23)sc2c1CCCCC2,EC50,Leishmania amazonensis; [12],26600 nM
